Measured values as given in patent US10947205B2, “Oxazolidinone compounds and methods of use thereof as antibacterial agents” (priority 2015, dated 2021).
In brackets after ≈: the same amount, converted by molar mass. Like-named read-outs stand apart in the source and are kept apart here.

Columns and labels:
[1] = system: Mycobacterium tuberculosis (Mtb); experiment: microbe, parasite or virus in culture; type: cell-based, Mycobacterium tuberculosis H37Rv (Mtb-GFP); details: 168 h
[2] = system: mitochondrial protein synthesis in HepG2 cells (COX-I / SDH-A); experiment: Mitochondrial protein synthesis assay; type: cell-based; details: Homo sapiens, read-out: MPS IC50_μM
Protocol: (§1) Inhibition of mitochondrial protein synthesis was assessed in HepG2 cells by comparing the levels of two subunits of oxidative phosphorylation enzyme complexes, subunit I of Complex IV (COX-I) and the 70 kDa subunit of Complex II (SDH-A). COX-I is mitochondrial DNA encoded and SDH-A is nuclear DNA encoded. HepG2 cells were seeded in 96-well collagen coated plates at 8,000 cells per well and exposed to 2-fold serial dilutions of compounds from 100 LM to 6.25 μM. Microtiter plates were incubated for approximately 5 replication cycles (4 days) prior to assessment of protein levels using a kit as described by the manufacturer (ab 110217 MitoBiogenesis In Cell ELISA Kit, Abcam, Cambridge, Mass.). Inhibition of mitochondrial protein synthesis was expressed as a ratio of COX-1 to SDH-A levels.
as §1, with “μM” for “LM”

[3] = system: Staphylococcus aureus (methicillin resistant, MB5393, COL); experiment: microbe, parasite or virus in culture; type: cell-based; details: MRSA, 22 h, read-out: MRSA COL MITC95 μM
Protocol: Inhibition of Staphylococcus aureus (methicillin resistant, MB5393, COL) growth was assessed in cation adjusted Mueller Hinton II broth (CAMHB) in 384-well microtiter plates. Bacteria were dispensed into microtiter plates at approximately 5×10^5 actively growing cells in 49 μL volumes per well. Cells were exposed to 2-fold serial dilutions of compounds from 200 μM to 0.195 μM and growth compared to drug-free control. Compound dilutions were prepared in 100% dimethylsulfoxide and added to microtiter plates in 1 μL volumes per well. Full growth control wells contained dimethylsufoxide and bacteria. No growth control wells contained dimethysulfoxide and CAMHB but no bacteria. Growth inhibition was assessed after a 22-hour growth period by measuring optical density using a spectrophotometer. The lowest concentration of test compound required to inhibit 95% of the growth of the bacteria was defined as the MITC95. All studies were done in a BSL2 facility.

[4] = pH 6.8, read-out: Mtb Cho MITC95_μM
[5] = pH 6.8, read-out: Mtb Glu MITC95_μM
[6] = 96 h, HepG2 cells, 4 days, ratio of COX-1 to SDH-A levels

Structure (SMILES)	MIC [1, 4]	MIC [1, 5]	IC50 [2, 6]	MIC [3]	IC50 ([2]; HepG2, 96 h)
CSc1ncc(-c2ccc(N3C[C@H](CN)OC3=O)cc2F)cn1 [Example 32, (5S)-5-(aminomethyl)-3-{3-fluoro-4-[2-(methylsulfanyl)pyrimidin-5-yl]phenyl}-1,3-oxazolidin-2-one]	0.29 µM (≈ 0.097 µg/mL)	0.24 µM (≈ 0.0803 µg/mL)	> 20 µM	200 µM (≈ 66.9 µg/mL)	–
CSc1ccc(-c2ncc(N3C[C@H](CNC(C)=O)OC3=O)cc2F)cc1 [Example 40, (S)—N-((3-(5-fluoro-6-(4-(methylthio)phenyl)pyridin-3-yl)-2-oxooxazolidin-5-yl)methyl)acetamide]	0.09 µM (≈ 0.0338 µg/mL)	0.076 µM (≈ 0.0285 µg/mL)	–	4.69 µM (≈ 1.76 µg/mL)	> 15 µM
CSc1ccc(-c2ccc(N3C[C@H](Cn4occc4=O)OC3=O)cc2F)cc1 [Example 50, (R)-2-((3-(2-fluoro-4′-(methylthio)-[1,1′-biphenyl]-4-yl)-2-oxooxazolidin-5-yl)methyl)isoxazol-3(2H)-one]	0.58 µM (≈ 0.232 µg/mL)	0.29 µM (≈ 0.116 µg/mL)	> 20 µM	200 µM (≈ 80.1 µg/mL)	–
NC[C@H]1CN(c2ccc(-c3ccc(C4CC4)nc3)c(F)c2)C(=O)O1 [Example 33, (5S)-5-(aminomethyl)-3-[4-(6-cyclopropylpyridin-3-yl)-3-fluorophenyl]-1,3-oxazolidin-2-one]	0.19 µM (≈ 0.0622 µg/mL)	0.845 µM (≈ 0.277 µg/mL)	> 20 µM	200 µM (≈ 65.5 µg/mL)	–
CCOC(=O)NC[C@H]1CN(c2ccc(-c3ccc(SC)cc3)c(F)c2)C(=O)O1 [Example 63, ethyl ({(5S)-3-[2-fluoro-4′-(methylsulfanyl)biphenyl-4-yl]-2-oxo-1,3-oxazolidin-5-yl}methyl)carbamate]	0.19 µM (≈ 0.0768 µg/mL)	0.29 µM (≈ 0.117 µg/mL)	18 µM	200 µM (≈ 80.9 µg/mL)	–
NC[C@H]1CN(c2cnc(N3CCS(=O)(=O)CC3)c(F)c2)C(=O)O1 [Example 48, (S)-5-(aminomethyl)-3-(6-(1,1-dioxidothiomorpholino)-5-fluoropyridin-3-yl)oxazolidin-2-one]	0.78 µM (≈ 0.269 µg/mL)	0.39 µM (≈ 0.134 µg/mL)	> 100 µM	200 µM (≈ 68.9 µg/mL)	–
NC[C@H]1CN(c2ccc(-c3cccnc3)c(F)c2)C(=O)O1 [Example 24, (5S)-5-(aminomethyl)-3-(3-fluoro-4-pyridin-3-ylphenyl)-1,3-oxazolidin-2-one]	0.09 µM (≈ 0.0259 µg/mL)	0.04 µM (≈ 0.0115 µg/mL)	> 20 µM	200 µM (≈ 57.5 µg/mL)	–
CSc1ccc(-c2ccc(N3C[C@H](CNC(=O)C4CC4)OC3=O)cc2F)cc1 [Example 41, (S)—N-((3-(2-fluoro-4′-(methylthio)-[1,1′-biphenyl]-4-yl)-2-oxooxazolidin-5-yl)methyl)cyclopropanecarboxamide]	0.04 µM (≈ 0.016 µg/mL)	0.04 µM (≈ 0.016 µg/mL)	8 µM	200 µM (≈ 80.1 µg/mL)	–
C[S+]([O-])c1ccc(-c2ccc(N3C[C@H](CN)OC3=O)cc2F)cc1 (stereo partly drawn) [Example 7, (5S)-5-(aminomethyl)-3-[2-fluoro-4′-(methylsulfinyl)biphenyl-4-yl]-1,3-oxazolidin-2-one]	0.09 µM (≈ 0.0314 µg/mL)	0.04 µM (≈ 0.0139 µg/mL)	> 20 µM	200 µM (≈ 69.7 µg/mL)	–
NC[C@H]1CN(c2ccc(-c3ccc(Cl)nc3)c(F)c2)C(=O)O1 [Example 22, (5S)-5-(aminomethyl)-3-[4-(6-chloropyridin-3-yl)-3-fluorophenyl]-1,3-oxazolidin-2-one]	0.19 µM (≈ 0.0611 µg/mL)	0.04 µM (≈ 0.0129 µg/mL)	> 20 µM	100 µM (≈ 32.2 µg/mL)	–
NC[C@H]1CN(c2ccc(-c3ccccc3)c(F)c2)C(=O)O1 [Example 39, (5S)-5-(aminomethyl)-3-(2-fluorobiphenyl-4-yl)-1,3-oxazolidin-2-one]	0.78 µM (≈ 0.223 µg/mL)	0.585 µM (≈ 0.167 µg/mL)	> 20 µM	200 µM (≈ 57.3 µg/mL)	–
N#Cc1ccc(-c2ccc(N3C[C@H](CN)OC3=O)cc2F)cc1 [Example 18, 4′-[(5S)-5-(aminomethyl)-2-oxo-1,3-oxazolidin-3-yl]-2′-fluorobiphenyl-4-carbonitrile]	0.09 µM (≈ 0.028 µg/mL)	0.04 µM (≈ 0.0125 µg/mL)	> 20 µM	50 µM (≈ 15.6 µg/mL)	–
NC[C@H]1CN(c2ccc(-c3cnc(N4CCCOCC4)nc3)c(F)c2)C(=O)O1 [Example 29, (5S)-5-(aminomethyl)-3-{3-fluoro-4-[2-(1,4-oxazepan-4-yl)pyrimidin-5-yl]phenyl}-1,3-oxazolidin-2-one]	1.5 µM (≈ 0.581 µg/mL)	0.39 µM (≈ 0.151 µg/mL)	> 25 µM	200 µM (≈ 77.5 µg/mL)	–
N#Cc1cccc(-c2ccc(N3C[C@H](CN)OC3=O)cc2F)c1 [Example 13, 4′-[(5S)-5-(aminomethyl)-2-oxo-1,3-oxazolidin-3-yl]-2′-fluorobiphenyl-3-carbonitrile]	0.19 µM (≈ 0.0592 µg/mL)	0.19 µM (≈ 0.0592 µg/mL)	> 20 µM	200 µM (≈ 62.3 µg/mL)	–
CC(=O)NC[C@H]1CN(c2ccc(N3CCn4ncnc4C3)cc2)C(=O)O1 [Example 42, (S)—N-((3-(4-(5,6-dihydro-[1,2,4]triazolo[1,5-a]pyrazin-7(8H)-yl)phenyl)-2-oxooxazolidin-5-yl)methyl)acetamide]	1.5 µM (≈ 0.535 µg/mL)	1.5 µM (≈ 0.535 µg/mL)	–	200 µM (≈ 71.3 µg/mL)	> 20 µM
NC[C@H]1CN(c2ccc(-c3cccc([N+](=O)[O-])c3)c(F)c2)C(=O)O1 [Example 20, (5S)-5-(aminomethyl)-3-(2-fluoro-3′-nitrobiphenyl-4-yl)-1,3-oxazolidin-2-one]	0.58 µM (≈ 0.192 µg/mL)	0.14 µM (≈ 0.0464 µg/mL)	> 20 µM	200 µM (≈ 66.3 µg/mL)	–
O=C1O[C@@H](Cn2ccnn2)CN1c1ccc(-c2ccc(N3CCNCC3)nc2)c(F)c1 [Example 54, (R)-5-((1H-1,2,3-triazol-1-yl)methyl)-3-(3-fluoro-4-(6-(piperazin-1-yl)pyridin-3-yl)phenyl)oxazolidin-2-one]	0.215 µM (≈ 0.091 µg/mL)	0.24 µM (≈ 0.102 µg/mL)	> 20 µM	2.34 µM (≈ 0.991 µg/mL)	–
CS(=N)(=O)c1ccc(-c2ccc(N3C[C@H](Cn4ccnn4)OC3=O)cc2F)cc1 (stereo partly drawn) [Example 64, (5R)-5-((1H-1,2,3-triazol-1-yl)methyl)-3-(2-fluoro-4′-(S-methylsulfonimidoyl)-[1,1′-biphenyl]-4-yl)oxazolidin-2-one]	0.09 µM (≈ 0.0374 µg/mL)	0.09 µM (≈ 0.0374 µg/mL)	> 20 µM	0.39 µM (≈ 0.162 µg/mL)	–
CC(C)(O)c1ncc(-c2ccc(N3C[C@H](CN)OC3=O)cc2F)s1 [Example 23, (5S)-5-(aminomethyl)-3-{3-fluoro-4-[2-(1-hydroxy-1-methylethyl)-1,3-thiazol-5-yl]phenyl}-1,3-oxazolidin-2-one]	0.19 µM (≈ 0.0668 µg/mL)	0.19 µM (≈ 0.0668 µg/mL)	> 20 µM	200 µM (≈ 70.3 µg/mL)	–
CSc1cccc(-c2ccc(N3C[C@H](CN)OC3=O)cc2F)c1 [Example 3, (5S)-5-(aminomethyl)-3-[2-fluoro-3′-(methylsulfanyl)biphenyl-4-yl]-1,3-oxazolidin-2-one]	0.78 µM (≈ 0.259 µg/mL)	1.14 µM (≈ 0.379 µg/mL)	> 20 µM	100 µM (≈ 33.2 µg/mL)	–
CC(C)(C)OC(=O)N1CC=C(c2ccc(N3C[C@H](CN)OC3=O)cc2F)CC1 [Example 26, tert-butyl 4-{4-[(5S)-5-(aminomethyl)-2-oxo-1,3-oxazolidin-3-yl]-2-fluorophenyl}-3,6-dihydropyridin-1(2H)-carboxylate]	1.5 µM (≈ 0.587 µg/mL)	0.78 µM (≈ 0.305 µg/mL)	> 20 µM	200 µM (≈ 78.3 µg/mL)	–
NC[C@H]1CN(c2ccc(-c3cccc(C(N)=O)c3)c(F)c2)C(=O)O1 [Example 10, 4′-[(5S)-5-(aminomethyl)-2-oxo-1,3-oxazolidin-3-yl]-2′-fluorobiphenyl-3-carboxamide]	0.09 µM (≈ 0.0296 µg/mL)	0.09 µM (≈ 0.0296 µg/mL)	> 20 µM	200 µM (≈ 65.9 µg/mL)	–
CC(=O)NC[C@H]1CN(c2ccc(N3CCOCC3)c(F)c2)C(=O)O1 [linezolid, reference compound]	3.14 µM (≈ 1.06 µg/mL)	4.58 µM (≈ 1.55 µg/mL)	8 µM	6.25 µM (≈ 2.11 µg/mL)	–
NC[C@H]1CN(c2cc(F)c(N3CCOCC3)c(F)c2)C(=O)O1 [Example 59, (S)-5-(aminomethyl)-3-(3,5-difluoro-4-morpholinophenyl)oxazolidin-2-one]	0.39 µM (≈ 0.122 µg/mL)	0.09 µM (≈ 0.0282 µg/mL)	> 20 µM	200 µM (≈ 62.7 µg/mL)	–
